Test system: male Wistar rats
Assay: Evaluation of wake promoting activity in rats (EEG/EMG sleep/wake scoring)
Assay type: in vivo, rat
Settings: i.p., 100 mg/kg, p<0.05 vs control groups
Description: Biological Data Methodology: Evaluation of Wake Promoting Activity in Rats
The methodology utilized for evaluating wake promoting activity of test compounds is based on that described by Edgar and Seidel, Journal of Pharmacology and Experimental Therapeutics, 283:757-769, 1997, and incorporated herein in its entirety by reference.
Animal Surgery. Adult, male Wistar rats (275-320 g from Charles River Laboratories, Wilmington, Mass.) were anesthetized (Nembutal, 45 mg/kg, ip.) and surgically prepared with implants for recording of chronic EEG (encephalographic) and EMG (electromyographic) recording. The EEG implants were made from commercially available components (Plastics One, Roanoke, Va.). EEG signals were recorded from stainless steel screw electrodes: 2 frontal (+3.0 mm AP from bregma, ±2.0 mm ML), and 2 occipital (−4.0 mm AP from bregma, ±2.0 mm ML). Two Teflon-coated stainless steel wires were positioned under the nuchal trapezoid muscles for EMG recording. […]
Data acquisition. […] On the day of dosing, data was recorded for 6 to 10 hours beginning at 11 AM.
(i) Drug administration and study design. Compounds were evaluated on groups of from 4 to 8 rats carried out over one or two separate test sessions. […]
Sleep/wake scoring. Sleep and wake activity were determined manually using ICELUS software. […]

SMILES: CC(C)(C)OC(=O)N1CCN(C(=O)CSCc2ccc3oc4ccc(F)cc4c3c2)CC1 [Example 26, 4-[2-(8-fluorodibenzofuran-2-yl-methylsulfanyl)acetyl]-piperazine-1-carboxylic acid tert-butyl ester]
- wakefulness compared to vehicle-treated animals: significantly greated wakefulness
